Here are results for four compounds from PMC10145610, “In Vitro and In Silico Investigation of Polyacetylenes from Launaea capitata (Spreng.) Dandy as Potential COX-2, 5-LOX, and BchE Inhibitors” (Molecules, 2023).

The target in assay [1] is T1, 5-LOX (Homo sapiens, UniProt P09917).
T1 construct: purchased BioVision K980-100
T1 sequence (P09917 1-674): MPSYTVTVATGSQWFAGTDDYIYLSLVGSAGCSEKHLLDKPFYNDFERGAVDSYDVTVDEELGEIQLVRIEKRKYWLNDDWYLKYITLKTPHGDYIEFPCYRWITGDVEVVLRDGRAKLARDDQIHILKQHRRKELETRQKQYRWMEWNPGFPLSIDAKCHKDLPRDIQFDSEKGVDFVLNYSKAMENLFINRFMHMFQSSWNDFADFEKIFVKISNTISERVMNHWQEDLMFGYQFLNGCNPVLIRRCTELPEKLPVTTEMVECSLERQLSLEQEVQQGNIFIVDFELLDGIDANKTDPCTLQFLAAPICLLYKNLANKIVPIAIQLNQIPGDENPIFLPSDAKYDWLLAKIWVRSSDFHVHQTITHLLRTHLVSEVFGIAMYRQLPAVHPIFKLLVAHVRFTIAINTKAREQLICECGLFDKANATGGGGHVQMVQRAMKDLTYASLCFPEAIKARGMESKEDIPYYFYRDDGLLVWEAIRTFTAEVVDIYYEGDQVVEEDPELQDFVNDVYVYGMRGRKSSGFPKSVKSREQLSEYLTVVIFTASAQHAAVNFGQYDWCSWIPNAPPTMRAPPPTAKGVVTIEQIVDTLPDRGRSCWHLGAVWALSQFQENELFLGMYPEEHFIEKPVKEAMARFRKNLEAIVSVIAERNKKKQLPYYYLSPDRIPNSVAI
The assay is described as follows: 5-LOX inhibition assay (fluorometric inhibitor screening kit). The assay is classed as biochemical. As for the experimental part: The fluorometric approach was used to test the 5-LOX enzyme, in accordance with the manufacturer’s instructions, by using the enzyme’s inhibitor screening kit (CAT # K980-100, BioVision, Milpitas, CA, USA) to evaluate the 5-lipoxygenase (5-LOX) inhibitory activity in vitro [18, 45, 46]. Twelve concentrations (ranging from […]) were prepared by serial dilution method.
(§1) The IC50 values were represented as means (± SD) from triplicates of two independent experiments.

Assay [2] deals with T2, horse serum butyrylcholinesterase (Equine BchE) (Equus caballus, UniProt P81908).
T2 construct: using horse serum butyrylcholinesterase (Equine BchE; CAS#9001-08-5); tissue CAS#9001-08-5; host or cells: horse serum
T2 sequence (P81908 whole entry): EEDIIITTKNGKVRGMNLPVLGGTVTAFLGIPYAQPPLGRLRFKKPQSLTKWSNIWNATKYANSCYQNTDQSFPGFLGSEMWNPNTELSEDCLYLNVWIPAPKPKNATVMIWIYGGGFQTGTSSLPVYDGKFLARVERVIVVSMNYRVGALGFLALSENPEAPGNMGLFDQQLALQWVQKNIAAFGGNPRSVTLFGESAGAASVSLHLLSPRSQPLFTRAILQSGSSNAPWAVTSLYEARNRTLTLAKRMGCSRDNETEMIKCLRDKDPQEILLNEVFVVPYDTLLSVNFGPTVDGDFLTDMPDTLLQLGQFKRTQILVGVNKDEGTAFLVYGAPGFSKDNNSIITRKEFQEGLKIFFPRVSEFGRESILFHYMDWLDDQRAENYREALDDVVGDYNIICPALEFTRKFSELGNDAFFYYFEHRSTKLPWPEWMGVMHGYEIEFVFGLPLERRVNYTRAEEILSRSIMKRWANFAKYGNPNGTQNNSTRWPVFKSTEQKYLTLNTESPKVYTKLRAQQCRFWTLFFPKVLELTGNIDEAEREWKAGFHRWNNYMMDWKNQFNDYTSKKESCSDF
The assay is described as follows: BchE inhibition assay. It counts as biochemical. The method, then:
The in vitro butyrylcholinesterase (BchE) inhibitory activity of the isolated polyacetylenes was determined according to the published method, using horse serum butyrylcholinesterase (Equine BchE; CAS#9001-08-5) with a slight change. To create a useful stock solution, the materials were dissolved in DMSO. The maximal DMSO concentration was 0.1%, and twelve sample concentrations (ranging from […]) were created by two-fold serial dilution in Tris buffer (pH 8.0).
as §1

Another assay addresses T3, COX-2 (Homo sapiens, UniProt P35354).
T3 construct: purchased BioVision K547-100
T3 sequence (P35354 18-604): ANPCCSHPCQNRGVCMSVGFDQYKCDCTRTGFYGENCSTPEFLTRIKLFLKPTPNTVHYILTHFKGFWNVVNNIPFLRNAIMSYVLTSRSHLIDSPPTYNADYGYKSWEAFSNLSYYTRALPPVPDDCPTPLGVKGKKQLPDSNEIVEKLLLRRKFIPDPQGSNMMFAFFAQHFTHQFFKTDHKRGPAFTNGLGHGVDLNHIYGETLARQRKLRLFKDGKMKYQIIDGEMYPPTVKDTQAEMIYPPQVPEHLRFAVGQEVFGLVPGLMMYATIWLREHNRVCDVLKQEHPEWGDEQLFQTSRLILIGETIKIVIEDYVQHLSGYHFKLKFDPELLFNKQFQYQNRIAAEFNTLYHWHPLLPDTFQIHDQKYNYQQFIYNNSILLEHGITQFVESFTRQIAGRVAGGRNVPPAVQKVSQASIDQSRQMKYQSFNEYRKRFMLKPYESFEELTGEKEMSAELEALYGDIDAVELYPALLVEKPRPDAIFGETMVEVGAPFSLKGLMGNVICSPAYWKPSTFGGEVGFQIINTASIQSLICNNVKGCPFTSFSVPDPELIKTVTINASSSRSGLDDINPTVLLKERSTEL
As to the kind of experiment: COX-2 inhibition assay (fluorometric inhibitor screening kit). It counts as biochemical. As for the experimental part:
The fluorometric approach was used to measure the in vitro cyclooxygenase (COX-2) inhibitory activity. It was carried out in accordance with the COX-2 Inhibitor Screening Kit methodology, as advised by the manufacturer (CAT # K547-100, BioVision, Milpitas, CA, USA). The sample solutions were prepared in the manner described before providing twelve concentrations (ranging from […]).
as §1

The test system of a further assay is COX-1. Particulars: read-out: inhibitory activity against COX-1; cited from earlier work.
Assay [3] concerns the target T1, 5-LOX. Particulars: read-out: inhibitory activity against 5-LOX; cited from earlier work.

Each structure is given as a SMILES string. Like-named read-outs stand apart in the source and are kept apart here.

For the compound `C/C=C/C#CC#C/C=C/CC[C@@H](CCO)O[C@@H]1O[C@H](CO)[C@@H](O)[C@H](O)[C@H]1O` [Compound 4, (3S)-(6E,12E)-tetradecadiene-8,10-diyne-1-ol-3-O-β-D-glucopyranoside], the IC50 against 5-LOX [1] amounted to 34.6 ± 4.26 µM; in assay [2] it was 14.8 ± 1.55 µM; on COX-2 it was 146 ± 7.7 µM.
As to `C/C=C/C#CC#C/C=C/C=C\CCOC(=O)/C=C/c1ccc(O)c(OC)c1` [(3Z,5E,11E)-tridecatriene-7,9-diynyl-1-O-(E)-ferulate], the IC50 in the assay on COX-1 is 1.1 µM; on 5-LOX [3], 3.4 µM.
For `C/C=C/C#CC#C/C=C/CC[C@H](O)CCO` [Compound 2, (3S)-(6E,12E)-tetradecadiene-8,10-diyne-1,3-diol], the IC50 is more than 200 µM at 5-LOX [1], 179 ± 15.6 µM in assay [2] and more than 200 µM on COX-2. Moreover, on COX-2 (in vitro, mean ± SD, triplicates of two independent experiments), the “IC50 against COX-2” value was “inactive”.
In the case of `CC(Cc1ccc(O)c(O)c1)C(C)Cc1ccc(O)c(O)c1` (stereo not shown) [NDGA, nordihydroguaiaretic acid, reference compound], the IC50 on COX-2 (in vitro, mean ± SD, triplicates of two independent experiments, read-out: IC50 against COX-2) is 4.7 ± 0.76 µM.
